{"source": "patent US20110301125A1", "about": "“Method for Treating Macular Degeneration” (SANOFI-AVENTIS, priority 2008, published 2011)", "key": {"[1]": {"system": "rat laser induced macular degeneration model (choroidal neovascularization)", "assay": "Example 1: rat laser-induced choroidal neovascularization, histopathology of CNV plaque thickness (first set of study)", "format": "in vivo, Brown Norway rats (Rattus norvegicus)", "source_text": "Fifty male Brown Norway (strain BN/RijHsd) rats (Rattus norvegicus), 4-7 weeks old (50-124 g each), were purchased from Harlan (Indianapolis, Ind.), received in good condition. The animals were quarantined and acclimated for three (3) days. […] 50 animals were arbitrarily assigned to study groups and given permanent identification numbers.\nThe retinae (both eyes of each rat) were lased using a retinal lasering device with an attached Kowa PortSlit, SC14; Keeler Fison Indirect Ophthalmoscope (Lens 30 Diopter). Rats were briefly anesthetized and the eyes were dilated and coverslips were used as necessary to flatten the cornea. Each retina was lased with 186 mW, 75 μm spot sizes, 0.1 sec duration, applied to (approximately) 9-, 12- and 3-o'clock positions, 2-3 disk diameters from the optic nerve of each eye as feasible as determined by the surgeon. Rupture of the Bruch's membrane was identified by bubble formation, which occurred immediately at the site of photocoagulation. Rats were briefly anesthetized and administered fluoroscein to visualize the retinal vasculature post surgically and prior to necropsy. Representative photographs of the retinas were taken using a Kowa retinal camera for rodents. The photographs were taken to assure that vascular lesions were present immediately following the laser procedure and immediately prior to necropsy.\n2-[4-(7-ethyl-5H-pyrrolo[2,3-b]pyrazin-6-yl)-phenyl]-propan-2-ol A and 2-(3-fluoro-phenyl)-4-methyl-pyrimidine-5-carboxylic acid indol-1-ylamide were formulated in vehicle twice weekly during the study. Vehicle consisted of 0.5% methylcellulose, 0.2% Tween 20 in sterile water for injection, and was formulated once weekly. 2-(3-fluoro-phenyl)-4-methyl-pyrimidine-5-carboxylic acid indol-1-ylamide test article was reconstituted in vehicle at 0.6, 2, and 6 mg/mL; 2-(3-fluoro-phenyl)-4-methyl-pyrimidine-5-carboxylic acid indol-1-ylamide control article was reconstituted at 2 mg/mL. All solutions were stored refrigerated at 2-8° C. between dose administrations, and mixed prior to each dose administration.\nAnimals were dosed via twice daily oral gavage at 5 mL/kg, starting immediately prior to lasing and continuing for 14 days. Dose volumes were recalculated weekly based on the most recent body weight. Note that animals were lased on two sequential days, but were sacrificed together on a single day to facilitate handling during necropsy. Therefore, animals of the first cohort (Groups 1-3) received an extra (29th) dose on the morning of Day 14 to permit terminal bleed and sacrifice within 2-4 hr of final dose administration.\nThe fundus was photographed on Day 0, at the time of lasing or shortly thereafter, and on Day 13 or 14, prior to sacrifice. At each time point, retinal vasculature was illuminated by intravenous (IV) injection of each animal, several minutes before photography, with 0.1 mL of a 10% solution of fluorescein dye. Each eye was dilated with a mydriatic and photographed with Kowa Small Animal Fundus Camera. The purpose of the fundus photography was to confirm the presence lesions following lasing and prior to necropsy. Any animal found not to have lesions would be removed from study and replaced.\nFollowing fundus photography and terminal bleeds, animals were sacrificed per SOPs. […]\nThe slides were evaluated visually, qualitatively and semi-quantitatively. The nuclei of new vessels growing on the retinal were counted. […]"}, "[2]": {"system": "rat laser-induced macular degeneration model (choroidal neovascularization)", "assay": "Example 3: DP antagonist, plaque volume of choroidal neovascularization in rat laser-induced macular degeneration model", "format": "in vivo, brown Norway rats (Rattus norvegicus)", "conditions": "oral, twice each day on days -1 to 14; CNV volumes measured on day 14; FIG. 4", "source_text": "FIG. 4 is a histogram of the results of an analysis of the effect of DP antagonist 2-(3-{6-[2-(2,4-dichloro-phenyl)-ethylamino]-2-methoxy-pyrimidin-4-yl}-phenyl)-2-methyl-propionic acid phosphoric acid salt (“Compound V” for purposes of this figure) on the plaque volume of choroidal neovascularization in the rat laser-induced macular degeneration model. Indomethacin was used as a positive control.\nIn this example, the effect of DP antagonist 2-(3-{6-[2-(2,4-dichloro-phenyl)-ethylamino]-2-methoxy-pyrimidin-4-yl}-phenyl)-2-methyl-propionic acid phosphoric acid salt (the compound) on plaque volume of choroidal neovascularization in the rat laser-induced macular degeneration model. As in the Examples discussed above, brown Norway rats (Rattus norvegicus) were used in this example. The rats received laser coagulation on day 0.[…] The compound was then administered orally twice each day on days −1 to 14. Indomethacin (positive control) was similarly administered twice daily. On day 14, the rats were sacrificed and choroidal neovascular (CNV) volumes were measured on day 14."}, "[3]": {"system": "rat laser-induced macular degeneration model (choroidal neovascularization)", "assay": "Example 5: hPGDS inhibitor, CNV volume by flat-mount fluorescence 3D modeling in rat laser-induced macular degeneration model", "format": "in vivo, BN rats (Rattus norvegicus; strain Brown Norway)", "conditions": "oral, twice (or once) each day on days -1 to 7; CNV volumes measured on day 7; FIGS. 6A, 6B, 6C", "experimental": "FIG. 6A is a histogram of the results of the effect of the hPDGS inhibitor 2-Pyridin-2-yl-pyrimidine-5-carboxylic acid 3-[5-(1-hydroxy-1-methyl-ethyl)-1,2,4-oxadiazol-3-yl]-benzylamide (“Compound VII” for purposes of this figure) against a laser-induced choroidal neovascularization in the rat: 1st dose-response study. 2-Pyridin-2-yl-pyrimidine-5-carboxylic acid 3-[5-(1-hydroxy-1-methyl-ethyl)-1,2,4-oxadiazol-3-yl]-benzylamide was administered orally twice each day on days −1 to 7. Doxycycline was used as a positive control.\nFIG. 6B is a histogram of the results of the effect of the hPDGS inhibitor 2-pyridin-2-yl-pyrimidine-5-carboxylic acid 3-[5-(1-hydroxy-1-methyl-ethyl)-1,2,4-oxadiazol-3-yl]-benzylamide (“Compound VII” for purposes of this figure) against a laser-induced choroidal neovascularization in the rat: 2nd dose-response study. 2-pyridine-2-yl-pyrimidine-5-carboxylic acid 3-[5-(1-hydroxy-1-methyl-ethyl)-1,2,4-oxadiazol-3-yl]-benzylamide was administered orally twice each day on days −1 to 7. CELEBREX was used as a positive control. […]\nIn this example, the effect of hPGDS antagonist 2-Pyridin-2-yl-pyrimidine-5-carboxylic acid 3-[5-(1-hydroxy-1-methyl-ethyl)-1,2,4-oxadiazol-3-yl]-benzylamide was evaluated using the rat laser-induced macular degeneration model. […] Choroidal neovascular (CNV) volumes were measured on day 7. […]"}, "[4]": {"system": "rat laser-induced macular degeneration model (choroidal neovascularization)", "assay": "Example 4: hPGDS inhibitor, plaque volume of choroidal neovascularization in rat laser-induced macular degeneration model", "format": "in vivo, brown Norway rats", "conditions": "oral, twice each day on days -1 to 14; measured after fourteen days; FIG. 5", "experimental": "FIG. 5 is a histogram of the results of an analysis of the effect of the hPDGS inhibitor 4-Methyl-2-pyridin-2-yl-pyrimidine-5-carboxylic acid (5-fluoro-3-methyl-indol-1-yl)-amide (“Compound VI” for purposes of this figure) on the plaque volume of choroidal neovascularization in the rat laser-induced macular degeneration model. Indomethacin was used as a positive control.\nIn this example, the same experiment was performed with the rat laser-induced macular degeneration model to determine whether the hPDGS inhibitor 4-Methyl-2-pyridin-2-yl-pyrimidine-5-carboxylic acid (5-fluoro-3-methyl-indol-1-yl)-amide could limit the plaque volume of choroidal neovascularization\nIn particular, the hPDGS inhibitor 4-Methyl-2-pyridin-2-yl-pyrimidine-5-carboxylic acid (5-fluoro-3-methyl-indol-1-yl)-amide (the compound) was administered orally to the rats twice each day on days −1 to day 14. On day 0, a laser was used to induce choroidal neovascularization in the eye of the brown Norway rats. Indomethacin was administered to a control group similarly, i.e., twice each day from day −1 to day 14.\nAfter fourteen days, the rats were sacrificed and the plaque volume of choroidal neovascularization in the eye was measured."}}, "note": "Entries after “also recorded” stand apart in the source; their conditions may differ."}
{"smiles": "Cc1nc(-c2cccc(F)c2)ncc1C(=O)Nn1ccc2ccccc21", "note": "[2-(3-Fluoro-phenyl)-4-methyl-pyrimidine-5-carboxylic acid indol-1-ylamide]", "values": [{"measurement": "reduction of CNV plaque thickness", "setting": "[1]; 10 mpk, PO", "value": 40.7, "unit": "%"}]}
{"smiles": "COc1nc(NCCc2ccc(Cl)cc2Cl)cc(-c2cccc(C(C)(C)C(=O)O)c2)n1.O=P(O)(O)O", "note": "[2-(3-{6-[2-(2,4-Dichloro-phenyl)-ethylamino]-2-methoxy-pyrimidin-4-yl}-phenyl)-2-methyl-propionic Acid Phosphoric Acid Salt]", "values": [{"measurement": "limiting the volume of choroidal neovascularization", "setting": "[2]", "value": "very effective"}]}
{"smiles": "CC(C)(O)c1nc(-c2cccc(CNC(=O)c3cnc(-c4ccccn4)nc3)c2)no1", "note": "[2-Pyridin-2-yl-pyrimidine-5-carboxylic acid 3-[5-(1-hydroxy-1-methyl-ethyl)-1,2,4-oxadiazol-3-yl]-benzylamide]", "values": [{"measurement": "limiting CNV volume", "setting": "[3]", "value": "effective"}]}
{"smiles": "CCc1c(-c2ccc(C(C)(C)O)cc2)[nH]c2nccnc12", "note": "[2-[4-(7-Ethyl-5H-pyrrolo[2,3-b]pyrazin-6-yl)-phenyl]-propan-2-ol]", "values": [{"measurement": "reduction of CNV plaque thickness", "setting": "[1]; 3 mpk, PO", "value": 11.3, "unit": "%"}, {"measurement": "reduction of CNV plaque thickness", "setting": "[1]; 10 mpk, PO", "value": 36.6, "unit": "%"}, {"measurement": "reduction of CNV plaque thickness", "setting": "[1]; 30 mpk, PO", "value": 32.2, "unit": "%"}]}
{"smiles": "Cc1nc(-c2ccccn2)ncc1C(=O)Nn1cc(C)c2cc(F)ccc21", "note": "[4-Methyl-2-pyridin-2-yl-pyrimidine-5-carboxylic acid (5-fluoro-3-methyl-indol-1-yl)-amide]", "values": [{"measurement": "limiting the plaque volume of choroidal neovascularization", "setting": "[4]", "value": "effective; also recorded: very effective"}]}
{"smiles": "CC1(C)O[C@@H]2C[C@H]3[C@@H]4CCC5=CC(=O)C=C[C@]5(C)[C@@]4(F)[C@@H](O)C[C@]3(C)[C@]2(C(=O)CO)O1", "note": "[Triamcinolone Acetonide, reference compound]", "values": [{"measurement": "reduction of CNV plaque thickness", "setting": "[1]; positive control, intravitreal injection", "value": 25.9, "unit": "%"}]}
